The source made the active and inactive calls. The rule behind the calls is not given here.
What was measured:
[1] = test system: Mus musculus; test: Antialzheimer activity in ICR mouse assessed as reduction in scopolamine-induced cognitive impairment at 2.5 to 10 mg/kg, ip administered for 14 consecutive days followed by scopolmaine-stimulation measured on day 21 by Morris water maze test; type: functional, organism-based; conditions: dose 2.5-10 mg/kg, time 21.0 day, DDE = dose-dependent effect
[2] = target: Acetylcholinesterase (Electrophorus electricus, UniProt O42275); test: Inhibition of Electrophorus electricus AchE using […] as substrate incubated for 10 mins followed by substrate addition measured at 0 to 180 secs by Ellman's method
[3] = target: Amyloid-beta precursor protein (Homo sapiens) (UniProt P05067); test: Inhibition of amyloid beta (1 to 42) (unknown origin) self-induced aggregation at 25 uM measured after 46 to 48 hrs by Thioflavin binding assay relative to control; conditions: time 46-48 hrs
[4] = test system: PC-12; test: Cytoprotective activity against H2O2-induced oxidative damage in rat PC-12 cells assessed as cell viability at 1 uM preincubated for 4 hrs followed by H2O2 treatment for another 24 hrs by MTT assay; type: functional, cell-based; conditions: time 28.0 hrs
[5] = test system: PC-12; test: Cytoprotective activity against H2O2-induced oxidative damage in rat PC-12 cells assessed as cell viability at 1 to 3 uM preincubated for 4 hrs followed by H2O2 treatment for another 24 hrs by MTT assay; type: functional, cell-based; conditions: dose 1-3 µM, time 28.0 hrs
[6] = test system: PC-12; test: Inhibition of ROS production in rat PC-12 cells assessed as intracellular ROS level at 0.1 to 0.5 uM preincubated for 4 hrs followed by H2O2 treatment for another 24 hrs by flow cytometric analysis (RVB = 1.58); type: functional; conditions: dose 0.1-0.5 µM; time 28 hrs
[7] = test system: PC-12; test: Induction of apoptosis in rat PC-12 cells assessed as viable cells at 0.1 uM preincubated for 4 hrs followed by H2O2 treatment for another 24 hrs by Annexin V and PI double staining based flow cytometric analysis (RVB = 87.1 %); type: functional; conditions: time 28 hrs, read-out: Activity
[8] = test system: PC-12; test: Induction of apoptosis in rat PC-12 cells assessed as early apoptotic cells at 0.1 uM preincubated for 4 hrs followed by H2O2 treatment for another 24 hrs by Annexin V and PI double staining based flow cytometric analysis (RVB = 4.52 %); type: functional; conditions: time 28 hrs
[9] = test system: PC-12; test: Induction of apoptosis in rat PC-12 cells assessed as late apoptotic cells at 0.1 uM preincubated for 4 hrs followed by H2O2 treatment for another 24 hrs by Annexin V and PI double staining based flow cytometric analysis (RVB = 5.46 %); type: functional; conditions: time 28 hrs
[10] = test system: PC-12; test: Induction of apoptosis in rat PC-12 cells assessed as necrotic cells at 0.1 uM preincubated for 4 hrs followed by H2O2 treatment for another 24 hrs by Annexin V and PI double staining based flow cytometric analysis (RVB = 2.94 %); type: functional; conditions: time 28 hrs
[11] = test system: PC-12; test: Induction of apoptosis in rat PC-12 cells assessed as viable cells at 0.3 uM preincubated for 4 hrs followed by H2O2 treatment for another 24 hrs by Annexin V and PI double staining based flow cytometric analysis (RVB = 87.1 %); type: functional; conditions: time 28 hrs, read-out: Activity
[12] = test system: PC-12; test: Induction of apoptosis in rat PC-12 cells assessed as early apoptotic cells at 0.3 uM preincubated for 4 hrs followed by H2O2 treatment for another 24 hrs by Annexin V and PI double staining based flow cytometric analysis (RVB = 4.52 %); type: functional; conditions: time 28 hrs
[13] = test system: PC-12; test: Induction of apoptosis in rat PC-12 cells assessed as late apoptotic cells at 0.3 uM preincubated for 4 hrs followed by H2O2 treatment for another 24 hrs by Annexin V and PI double staining based flow cytometric analysis (RVB = 5.46 %); type: functional; conditions: time 28 hrs
[14] = test system: PC-12; test: Induction of apoptosis in rat PC-12 cells assessed as necrotic cells at 0.3 uM preincubated for 4 hrs followed by H2O2 treatment for another 24 hrs by Annexin V and PI double staining based flow cytometric analysis (RVB = 2.94 %); type: functional; conditions: time 28 hrs
[15] = test system: PC-12; test: Induction of apoptosis in rat PC-12 cells assessed as viable cells at 0.5 uM preincubated for 4 hrs followed by H2O2 treatment for another 24 hrs by Annexin V and PI double staining based flow cytometric analysis (RVB = 87.1 %); type: functional; conditions: time 28 hrs, read-out: Activity
[16] = test system: PC-12; test: Induction of apoptosis in rat PC-12 cells assessed as early apoptotic cells at 0.5 uM preincubated for 4 hrs followed by H2O2 treatment for another 24 hrs by Annexin V and PI double staining based flow cytometric analysis (RVB = 4.52 %); type: functional; conditions: time 28 hrs
[17] = test system: PC-12; test: Induction of apoptosis in rat PC-12 cells assessed as late apoptotic cells at 0.5 uM preincubated for 4 hrs followed by H2O2 treatment for another 24 hrs by Annexin V and PI double staining based flow cytometric analysis (RVB = 5.46 %); type: functional; conditions: time 28 hrs
[18] = test system: PC-12; test: Induction of apoptosis in rat PC-12 cells assessed as necrotic cells at 0.5 uM preincubated for 4 hrs followed by H2O2 treatment for another 24 hrs by Annexin V and PI double staining based flow cytometric analysis (RVB = 2.94 %); type: functional; conditions: time 28 hrs
[19] = test system: PC-12; test: Antioxidant activity in H2O2-induced oxidative stress in rat PC-12 cells assessed as increase in expression of HO-1 level preincubated for 4 hrs followed by H2O2 treatment for another 24 hrs by Western blotting analysis; type: functional, cell-based; conditions: dose 0.5-3 µM, time 28.0 hrs, DDE = dose-dependent effect
[20] = test system: PC-12; test: Antioxidant activity in H2O2-induced oxidative stress in rat PC-12 cells assessed as increase in expression of Nrf2 level preincubated for 4 hrs followed by H2O2 treatment for another 24 hrs by Western blotting analysis; type: functional, cell-based; conditions: dose 0.5-3 µM, time 28.0 hrs, DDE = dose-dependent effect
[21] = AUC (0 to 24 hrs) in Sprague-Dawley rat plasma at 10 mg/kg, IG measured at 10 to 1440 mins by LC-MS/MS analysis; type: ADME, organism-based; design: dose 10 mg/kg, time 10-1440 min, route ig; conditions: po
[22] = AUC (0 to 24 hrs) in Sprague-Dawley rat plasma at 2 mg/kg, iv measured at 10 to 1440 mins by LC-MS/MS analysis; type: ADME, organism-based; design: time lower 10 min, dose 2 mg/kg, time upper 1440 min, route iv
[23] = AUC (0 to infinity) in Sprague-Dawley rat plasma at 10 mg/kg, IG measured at 10 to 1440 mins by LC-MS/MS analysis; type: ADME, organism-based; design: time lower 10 min, dose 10 mg/kg, time upper 1440 min, route ig; conditions: po
[24] = AUC (0 to infinity) in Sprague-Dawley rat plasma at 2 mg/kg, iv measured at 10 to 1440 mins by LC-MS/MS analysis; type: ADME, organism-based; design: time lower 10 min, dose 2 mg/kg, time upper 1440 min, route iv
[25] = MRT infinity in Sprague-Dawley rat plasma at 10 mg/kg, IG measured at 10 to 1440 mins by LC-MS/MS analysis; type: ADME, organism-based; conditions: po, time 10-1440 min
[26] = MRT infinity in Sprague-Dawley rat plasma at 2 mg/kg, iv measured at 10 to 1440 mins by LC-MS/MS analysis; type: ADME, organism-based; conditions: time 10-1440 min
[27] = Half life in Sprague-Dawley rat plasma at 10 mg/kg, IG measured at 10 to 1440 mins by LC-MS/MS analysis; type: ADME, organism-based; conditions: po, time 10-1440 min
[28] = Half life in Sprague-Dawley rat plasma at 2 mg/kg, iv measured at 10 to 1440 mins by LC-MS/MS analysis; type: ADME, organism-based; conditions: time 10-1440 min
[29] = Tmax in Sprague-Dawley rat plasma at 10 mg/kg, IG measured at 10 to 1440 mins by LC-MS/MS analysis; type: ADME, organism-based; conditions: po, time 10-1440 min
[30] = Tmax in Sprague-Dawley rat plasma at 2 mg/kg, iv measured at 10 to 1440 mins by LC-MS/MS analysis; type: ADME, organism-based; conditions: time 10-1440 min
[31] = Cmax in Sprague-Dawley rat plasma at 10 mg/kg, IG measured at 10 to 1440 mins by LC-MS/MS analysis; type: ADME, organism-based; design: dose 10 mg/kg, time 10-1440 min, route ig; conditions: po
[32] = Cmax in Sprague-Dawley rat plasma at 2 mg/kg, iv measured at 10 to 1440 mins by LC-MS/MS analysis; type: ADME, organism-based; design: time lower 10 min, dose 2 mg/kg, time upper 1440 min, route iv
[33] = Clearance in Sprague-Dawley rat plasma at 10 mg/kg, IG measured at 10 to 1440 mins by LC-MS/MS analysis; type: ADME, organism-based; conditions: po, time 10-1440 min
[34] = Clearance in Sprague-Dawley rat plasma at 2 mg/kg, iv measured at 10 to 1440 mins by LC-MS/MS analysis; type: ADME, organism-based; conditions: time 10-1440 min
[35] = Bioavailability in Sprague-Dawley rat plasma at 10 mg/kg, IG measured at 10 to 1440 mins by LC-MS/MS analysis; type: ADME, organism-based; conditions: po, time 10-1440 min
[36] = test system: Mus musculus; test: Antialzheimer activity in scopolamine-induced cognitive impairment ICR mouse model assessed as improvement of exploration ability at 2.5 to 10 mg/kg, ip administered for 14 consecutive days followed by scopolmaine-stimulation measured on day 21 by Y maze test; type: functional; conditions: dose 2.5-10 mg/kg, time 21 day
[37] = Toxicity in sopolamine-induced cognitive impairment ICR mouse model assessed as swimming motility impairment at 10 mg/kg, ip administered for 14 consecutive days followed by scopolmaine-stimulation measured on day 21; type: organism-based; conditions: in vivo, 504 h, time 21 day
[38] = Toxicity in sopolamine-induced cognitive impairment ICR mouse model assessed as emesis at 10 mg/kg, ip administered for 14 consecutive days followed by scopolmaine-stimulation measured on day 21; type: organism-based; conditions: in vivo, 504 h, time 21 day
[39] = Toxicity in sopolamine-induced cognitive impairment ICR mouse model assessed as diarrhea at 10 mg/kg, ip administered for 14 consecutive days followed by scopolmaine-stimulation measured on day 21; type: organism-based; conditions: in vivo, 504 h, time 21 day
[40] = Toxicity in sopolamine-induced cognitive impairment ICR mouse model assessed as morphological change in heart at 10 mg/kg, ip administered for 14 consecutive days followed by scopolmaine-stimulation measured on day 21 by H and E staining method; type: organism-based; conditions: in vivo, 504 h, time 21 day
[41] = Toxicity in sopolamine-induced cognitive impairment ICR mouse model assessed as morphological change in liver at 10 mg/kg, ip administered for 14 consecutive days followed by scopolmaine-stimulation measured on day 21 by H and E staining method; type: organism-based; conditions: in vivo, 504 h, time 21 day
[42] = Toxicity in sopolamine-induced cognitive impairment ICR mouse model assessed as morphological change in spleen at 10 mg/kg, ip administered for 14 consecutive days followed by scopolmaine-stimulation measured on day 21 by H and E staining method; type: organism-based; conditions: in vivo, 504 h, time 21 day
[43] = Toxicity in sopolamine-induced cognitive impairment ICR mouse model assessed as morphological change in lung at 10 mg/kg, ip administered for 14 consecutive days followed by scopolmaine-stimulation measured on day 21 by H and E staining method; type: organism-based; conditions: in vivo, 504 h, time 21 day
[44] = Toxicity in sopolamine-induced cognitive impairment ICR mouse model assessed as morphological change in renal at 10 mg/kg, ip administered for 14 consecutive days followed by scopolmaine-stimulation measured on day 21 by H and E staining method; type: organism-based; conditions: in vivo, 504 h, time 21 day
[45] = target: Cholinesterase (Equus caballus, UniProt P81908)
Description: Inhibition of equine serum BchE using S-butyryl thiocholine iodide as substrate incubated for 10 mins followed by substrate addition measured at 0 to 180 secs by Ellman's method

[46] = in vitro; conditions: PAMPA

Cholinesterase, sequence (P81908 whole entry): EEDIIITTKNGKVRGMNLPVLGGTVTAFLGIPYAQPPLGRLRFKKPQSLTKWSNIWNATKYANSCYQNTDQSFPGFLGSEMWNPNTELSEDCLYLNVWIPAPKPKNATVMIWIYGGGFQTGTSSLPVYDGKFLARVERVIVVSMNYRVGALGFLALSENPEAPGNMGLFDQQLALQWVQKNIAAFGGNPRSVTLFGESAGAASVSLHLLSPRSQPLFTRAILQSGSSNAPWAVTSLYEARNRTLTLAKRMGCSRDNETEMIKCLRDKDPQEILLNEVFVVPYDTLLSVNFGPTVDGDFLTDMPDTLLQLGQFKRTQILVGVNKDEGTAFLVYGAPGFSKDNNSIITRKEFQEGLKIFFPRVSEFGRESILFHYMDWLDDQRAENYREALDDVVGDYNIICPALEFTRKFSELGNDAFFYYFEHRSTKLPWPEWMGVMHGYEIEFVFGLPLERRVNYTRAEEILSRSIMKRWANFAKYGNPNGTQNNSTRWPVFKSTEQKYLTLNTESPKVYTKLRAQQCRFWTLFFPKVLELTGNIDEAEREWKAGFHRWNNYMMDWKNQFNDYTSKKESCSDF
Acetylcholinesterase, sequence (O42275 whole entry): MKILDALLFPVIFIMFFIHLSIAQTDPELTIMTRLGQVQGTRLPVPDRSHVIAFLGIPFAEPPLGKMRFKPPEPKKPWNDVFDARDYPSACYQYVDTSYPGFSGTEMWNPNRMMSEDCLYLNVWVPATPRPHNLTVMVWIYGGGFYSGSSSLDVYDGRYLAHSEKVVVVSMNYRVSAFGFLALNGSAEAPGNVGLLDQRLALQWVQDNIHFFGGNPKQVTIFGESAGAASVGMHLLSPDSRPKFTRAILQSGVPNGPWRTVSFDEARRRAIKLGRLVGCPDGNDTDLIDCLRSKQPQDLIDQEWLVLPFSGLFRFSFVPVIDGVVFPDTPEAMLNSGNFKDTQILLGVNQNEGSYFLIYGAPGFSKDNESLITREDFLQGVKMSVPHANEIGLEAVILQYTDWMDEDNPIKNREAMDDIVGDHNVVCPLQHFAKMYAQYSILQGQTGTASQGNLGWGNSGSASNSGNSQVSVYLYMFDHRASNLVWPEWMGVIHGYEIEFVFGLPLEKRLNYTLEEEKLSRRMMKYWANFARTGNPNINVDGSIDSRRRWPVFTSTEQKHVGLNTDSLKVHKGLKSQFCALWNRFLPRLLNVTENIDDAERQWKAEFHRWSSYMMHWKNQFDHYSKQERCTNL
Amyloid-beta precursor protein (Homo sapiens), sequence (P05067 whole entry): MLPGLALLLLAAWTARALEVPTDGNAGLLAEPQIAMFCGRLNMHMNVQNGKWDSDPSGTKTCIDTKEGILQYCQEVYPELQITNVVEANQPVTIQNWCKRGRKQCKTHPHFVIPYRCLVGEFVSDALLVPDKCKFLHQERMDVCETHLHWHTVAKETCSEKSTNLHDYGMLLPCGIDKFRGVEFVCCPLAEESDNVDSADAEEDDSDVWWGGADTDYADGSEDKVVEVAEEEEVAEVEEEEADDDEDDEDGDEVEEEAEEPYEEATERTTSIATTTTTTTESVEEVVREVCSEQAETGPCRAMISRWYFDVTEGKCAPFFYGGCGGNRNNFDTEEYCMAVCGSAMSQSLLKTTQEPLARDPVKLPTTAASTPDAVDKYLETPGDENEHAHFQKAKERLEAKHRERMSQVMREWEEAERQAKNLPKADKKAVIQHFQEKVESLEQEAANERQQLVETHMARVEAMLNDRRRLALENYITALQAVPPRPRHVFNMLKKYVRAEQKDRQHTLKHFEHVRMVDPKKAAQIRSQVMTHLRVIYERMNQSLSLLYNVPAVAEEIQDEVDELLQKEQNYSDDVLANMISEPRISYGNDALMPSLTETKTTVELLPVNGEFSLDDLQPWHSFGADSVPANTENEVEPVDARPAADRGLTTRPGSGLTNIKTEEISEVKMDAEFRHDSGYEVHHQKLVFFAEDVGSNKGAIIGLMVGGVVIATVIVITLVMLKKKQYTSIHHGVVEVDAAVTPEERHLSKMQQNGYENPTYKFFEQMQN

## CC1CCCCN1CCCOc1cc2c3c(nccc3c1)-c1ccccc1C2=O (stereo not drawn)
[1]
  Activity: Dde
[2]
  IC50: 45 nM
[3]
  inhibition: 35.3%
[4]
  Activity: Active
[5]
  Activity: Active
[6]
  Activity: 1.1
[7]
  viability at 0.1 µM: 79.7%
[8]
  Activity: 6.76%
[9]
  Activity: 8.98%
[10]
  Activity: 4.58%
[11]
  viability at 0.3 µM: 86.9%
[12]
  Activity: 3.99%
[13]
  Activity: 6.09%
[14]
  Activity: 2.99%
[15]
  viability at 0.5 µM: 88.5%
[16]
  Activity: 3.71%
[17]
  Activity: 4.81%
[18]
  Activity: 2.96%
[19]
  Activity: Dde
[20]
  Activity: Dde
[21]
  AUC(0-t): 704 ng·h/mL
[22]
  AUC(0-t): 254 ng·h/mL
[23]
  AUC(0-inf): 841 ng·h/mL
[24]
  AUC(0-inf): 288 ng·h/mL
[25]
  MRT inf: 6.48 h
[26]
  MRT inf: 2.79 h
[27]
  half-life: 6.47 h
[28]
  half-life: 3.73 h
[29]
  Tmax: 3.33 h
[30]
  Tmax: 4.98 min
[31]
  Cmax: 68.5 ng/mL
[32]
  Cmax: 103 ng/mL
[33]
  CL/F: 208 mL/min/kg
[34]
  clearance: 116 mL/min/kg
[35]
  bioavailability: 55.5%
[36]
  Activity: 45.98%
[37]
  Activity: Non-Toxic
[38]
  Activity: Non-Toxic
[39]
  Activity: Non-Toxic
[40]
  Activity: Non-Toxic
[41]
  Activity: Non-Toxic
[42]
  Activity: Non-Toxic
[43]
  Activity: Non-Toxic
[44]
  Activity: Non-Toxic
[45]
  IC50: 19700 nM
[46]
  Papp: 16.6 ×10⁻⁶ cm/s

## CN1CCN(CCCCOc2cc3c4c(nccc4c2)-c2ccccc2C3=O)CC1
[2]
  IC50: 1410 nM
[3]
  inhibition: 25.4%
[4]
  Activity: Active
[45]
  IC50: > 100000 nM

## CC1CCCCN1CCOc1cc2c3c(nccc3c1)-c1ccccc1C2=O (stereo not drawn)
[2]
  IC50: 1310 nM
[3]
  inhibition: 16.2%
[4]
  Activity: Active
[45]
  IC50: > 100000 nM

## O=C1c2ccccc2-c2nccc3cc(OCCCN4CCCCC4)cc1c23
[2]
  IC50: 140 nM
[3]
  inhibition: 41.2%
[4]
  Activity: Active
[45]
  IC50: 35300 nM
